The source made the active and inactive calls. No cut-off for these calls is given here.
Key:
[1] = Cytotoxicity against human LS174 cells assessed as reduction in cell survival after 72 hrs by MTT assay; format: functional, cell-based; conditions: LS174, 72 h
MRC5 = experiment: Cytotoxicity against human MRC5 cells assessed as reduction in cell survival after 72 hrs by MTT assay; format: cell-based; conditions: MRC5, 72 h
A549 [2] = experiment: Cytotoxicity against human A549 cells assessed as reduction in cell survival after 72 hrs by MTT assay; format: functional, cell-based; conditions: A549, 72 h
HeLa [3] = experiment: Cytotoxicity against human HeLa cells assessed as reduction in cell survival after 72 hrs by MTT assay; format: functional, cell-based
Escherichia coli [4] = experiment: Inhibition of Fe(2+)-induced DNA cleavage of Escherichia coli pUC19 at 1:1 compound to iron ratio by agarose gel elctrophoresis method
HeLa [5] = experiment: Induction of apoptosis in human HeLa cells assessed as increase in p18 Bax level at cytotoxic IC50 level after 24 hrs by Western blotting method; format: functional, cell-based
HeLa [6] = experiment: Induction of cell cycle arrest in human HeLa cells assessed as accumulation at G2/M phase at cytotoxic IC50 level after 24 hrs by propidium iodide staining based flow cytometry (reference value: 24.77%); format: functional
Escherichia coli [7] = experiment: Induction of DNA cleavage of Escherichia coli pUC19 at 2 mM by agarose gel elctrophoresis method
Calf thymus DNA [8] = experiment: Binding affinity to calf thymus DNA assessed as hyperchromism at 20 to 60 uM by spectroscopy; format: nucleic-acid assay; conditions: Bos taurus
HeLa [9] = experiment: Induction of caspase-3 activation in human HeLa cells assessed as increase in spectrin cleavage product level at cytotoxic IC50 level after 24 hrs by Western blotting method; format: functional, cell-based
HeLa [10] = experiment: Induction of cell cycle arrest in human HeLa cells assessed as accumulation at subG1 phase at 2 times cytotoxic IC50 level after 24 hrs by propidium iodide staining based flow cytometry (reference value: 2.53%); format: functional
HeLa [11] = experiment: Induction of cell cycle arrest in human HeLa cells assessed as accumulation at S phase at 2 times cytotoxic IC50 level after 24 hrs by propidium iodide staining based flow cytometry (reference value: 14.5%); format: functional
Bos taurus [12] = organism: Bos taurus; experiment: Displacement of Hoechst 33258 from calf thymus DNA at 30 to 60 uM by spectroscopy relative to control
A549 [13] = experiment: Induction of apoptosis in human A549 cells assessed as increase in p18 Bax level at cytotoxic IC50 level after 24 hrs by Western blotting method; format: functional, cell-based
HeLa [14] = experiment: Induction of cell cycle arrest in human HeLa cells assessed as accumulation at G1 phase at 2 times cytotoxic IC50 level after 24 hrs by propidium iodide staining based flow cytometry (reference value: 51.33%); format: functional
Bos taurus [15] = organism: Bos taurus; experiment: Displacement of ethidium bromide from calf thymus DNA at 30 to 60 uM by spectroscopy
HeLa [16] = experiment: Induction of cell cycle arrest in human HeLa cells assessed as accumulation at G2/M phase at 2 times cytotoxic IC50 level after 24 hrs by propidium iodide staining based flow cytometry (reference value: 24.77%); format: functional
A549 [17] = experiment: Induction of apoptosis in human A549 cells assessed as caspase-3 activation at cytotoxic IC50 level after 24 hrs by Western blotting method; format: functional, cell-based
HeLa [18] = experiment: Induction of cell cycle arrest in human HeLa cells assessed as accumulation at G1 phase at cytotoxic IC50 level after 24 hrs by propidium iodide staining based flow cytometry (reference value: 51.33%); format: functional
HeLa [19] = experiment: Induction of cell cycle arrest in human HeLa cells assessed as accumulation at subG1 phase at cytotoxic IC50 level after 24 hrs by propidium iodide staining based flow cytometry (reference value: 2.53%); format: functional
Escherichia coli [20] = experiment: Inhibition of Fe(2+)-induced DNA cleavage of Escherichia coli pUC19 at 1:2 compound to iron ratio by agarose gel elctrophoresis method
Calf thymus DNA [21] = experiment: Binding affinity to calf thymus DNA assessed as binding constant at 20 to 60 uM by spectroscopy; format: nucleic-acid assay; conditions: Bos taurus
Bos taurus [22] = organism: Bos taurus; experiment: Displacement of Hoechst 33258 from calf thymus DNA at 30 to 60 uM by spectroscopy
HeLa [23] = experiment: Induction of apoptosis in human HeLa cells assessed as caspase-3 activation at cytotoxic IC50 level after 24 hrs by Western blotting method; format: functional, cell-based
HeLa [24] = experiment: Induction of cell cycle arrest in human HeLa cells assessed as accumulation at S phase at cytotoxic IC50 level after 24 hrs by propidium iodide staining based flow cytometry (reference value: 14.5%); format: functional

With `O=C(/C=C/c1ccc(Cl)cc1)c1cccc2c1C(=O)c1ccccc1C2=O` the IC50 [1] was 47.2 µM, the IC50 (MRC5) was 52 µM and the IC50 (A549 [2]) was 35.3 µM. For the same compound, the IC50 (HeLa [3]) was 33.1 µM.
`COc1cccc(C(=O)/C=C/c2ccc(/C=C/C(=O)c3cccc4c3C(=O)c3ccccc3C4=O)cc2)c1` gave an IC50 [1] of 16.7 µM, an IC50 (MRC5) of 46.5 µM and an IC50 (A549 [2]) of 30.9 µM. For the same compound, the IC50 (HeLa [3]) was 2.77 µM.
With `Cc1cccc(/C=C/C(=O)c2cccc3c2C(=O)c2ccccc2C3=O)c1` the IC50 [1] was 21.5 µM, the IC50 (MRC5) was 33.7 µM and the IC50 (A549 [2]) was 33 µM. It also gave an IC50 (HeLa [3]) of 11.6 µM.
`Cc1ccccc1/C=C/C(=O)c1cccc2c1C(=O)c1ccccc1C2=O` showed an IC50 [1] of 45.2 µM, an IC50 (MRC5) of 48.6 µM and an IC50 (A549 [2]) of 44.6 µM. For the same compound, the IC50 (HeLa [3]) was 12.1 µM.
Compound `O=C(/C=C/c1ccc(/C=C/C(=O)c2cccc3c2C(=O)c2ccccc2C3=O)cc1)c1ccc(F)cc1` has an IC50 [1] of 10.6 µM, an IC50 (MRC5) of 37 µM and an IC50 (A549 [2]) of 36.3 µM. For the same compound, the IC50 (HeLa [3]) was 2.62 µM.
Work on `O=C(/C=C/c1ccccc1)c1cccc2c1C(=O)c1ccccc1C2=O` yielded an IC50 [1] of 31.3 µM, an IC50 (MRC5) of 46.4 µM and an IC50 (A549 [2]) of 35.5 µM. It also gave an IC50 (HeLa [3]) of 14.8 µM.
With `O=C(/C=C/c1ccc(/C=C/C(=O)c2cccc3c2C(=O)c2ccccc2C3=O)cc1)c1ccccc1` the inhibition (Escherichia coli [4]) was “Active”, the IC50 [1] was 4.56 µM and the Activity (HeLa [5]) was “Active”. For the same compound, the Activity (HeLa [6]) was 35.25%, the Activity (Escherichia coli [7]) was “inactive” and the Activity (Calf thymus DNA [8]) was “Active”. The Activity (HeLa [9]) was “Active”, the Activity (HeLa [10]) was 4.96% and the Activity (HeLa [11]) was 23.04%. The IC50 (MRC5) was 33.6 µM, the Imax (Bos taurus [12]) was 52% and the Activity (A549 [13]) was “inactive”. For the same compound, the IC50 (A549 [2]) was 26.2 µM, the Activity (HeLa [14]) was 36.61% and the Activity (Bos taurus [15]) was “inactive”. The Activity (HeLa [16]) was 34.02%, the Activity (A549 [17]) was “Active” and the Activity (HeLa [18]) was 37.54%. The Activity (HeLa [19]) was 4.66%, the inhibition (Escherichia coli [20]) was “inactive” and the Kb (Calf thymus DNA [21]) was 2.65 ×10³ /M. For the same compound, the inhibition (Bos taurus [22]) was “Dose-dependent effect”, the IC50 (HeLa [3]) was 2.41 µM and the Activity (HeLa [23]) was “Active”. It also gave an Activity (HeLa [24]) of 17.06%.

— ChEMBL document CHEMBL3352808, “Anthraquinone-chalcone hybrids: synthesis, preliminary antiproliferative evaluation and DNA-interaction studies” (Eur J Med Chem, 2015)
